This passage reports remaining activity results from paper PMC8286840, “Identifying SARS-CoV-2 antiviral compounds by screening for small molecule inhibitors of Nsp3 papain-like protease” (Biochemical Journal, 2021).

The target in test [1] is T1, SARS-CoV-2 PLpro (nsp3 1564–1878) (Severe acute respiratory syndrome coronavirus 2, UniProt P0DTD1). Description: biochemical. Further details: FRET-quenched peptide (Pro3) cleavage by PLpro, 10 min pre-incubation, slope over 20 min, normalised to no-compound control. The following applies: low concentration screen, read-out: % of control remaining.
The target of test [2] is T1, SARS-CoV-2 PLpro (nsp3 1564–1878). Description: biochemical. Further details: FRET-quenched peptide (Pro3) cleavage by PLpro, 10 min pre-incubation, slope over 20 min, normalised to no-compound control. The following applies: high concentration screen, read-out: % of control remaining.

Counter-ions that a name gives are not always drawn. Like-named read-outs stand apart in the source and are kept apart here.

With `Cc1ccc(NC(=O)c2ccc(CN3CCN(C)CC3)cc2)cc1Nc1nccc(-c2cccnc2)n1` [Imatinib], the remaining activity at 1.25 µM in test [1] (Well no.=1611) worked out at 102%; in test [1] (Well no.=2839) it was 99.7%. Also, the remaining activity at 3.75 µM in test [2] (Well no.=2839) was found to be 102%.

Turning to `O=C1CCC(c2ccc(-n3ccnc3)cc2)=NN1` [Imazodan], in test [1] (Well no.=764), the remaining activity at 1.25 µM turned out to be 97.3%. The remaining activity at 3.75 µM in test [2] (Well no.=764) came to 97.7%.

On to `N=C(N)SCCc1c[nH]cn1` [Imetit dihydrobromide], for which the remaining activity at 1.25 µM in test [1] (Well no.=779) was determined as 94.3%. The remaining activity at 3.75 µM in test [2] (Well no.=779) amounted to 94.6%.

For the compound `Cc1nccn1CCC(C(N)=O)(c1ccccc1)c1ccccc1` [Imidafenacin], the remaining activity at 1.25 µM in test [1] (Well no.=6377) was 102%. The remaining activity at 3.75 µM in test [2] (Well no.=6377) is 97.6%.

`CCOC(=O)[C@H](CCc1ccccc1)N[C@@H](C)C(=O)N1C(=O)N(C)C[C@H]1C(=O)O` [Imidapril (hydrochloride)]: the remaining activity at 1.25 µM in test [1] (Well no.=7686) turned out to be 99.8%. Besides, the remaining activity at 3.75 µM in test [2] (Well no.=7686) worked out at 98%.

Take `CCOC(=O)[C@H](CCc1ccccc1)N[C@@H](C)C(=O)N1C(=O)N(C)C[C@H]1C(=O)O` [Imidapril hydrochloride]: the remaining activity at 1.25 µM in test [1] (Well no.=5696) worked out at 91.8%. Also, the remaining activity at 3.75 µM in test [2] (Well no.=5696) came out at 92.9%.

For the compound `CC(C)Oc1ccc(C(=O)Cn2ccnc2)cc1-n1c(CN2CCN(C(=O)COc3ccc(Cl)cc3)CC2)nc2ccccc2c1=O` [Imidazole ketone erastin], in test [1] (Well no.=6884), the remaining activity at 1.25 µM is 95.5%. The remaining activity at 3.75 µM in test [2] (Well no.=6884) came out at 97%.

On to `O=C(O)Cc1cnc[nH]1` [Imidazole-4-acetic acid hydrochloride], for which the remaining activity at 1.25 µM in test [1] (Well no.=620) came out at 97.6%. Further, in test [2] (Well no.=620), the remaining activity at 3.75 µM was 101%.

In the case of `CCn1ccnc1CC1COc2ccccc2O1` (stereo not shown) [Imiloxan hydrochloride], the remaining activity at 1.25 µM in test [1] (Well no.=1063) was found to be 97.9%. Moreover, the remaining activity at 3.75 µM in test [2] (Well no.=1063) stood at 97%.

For the compound `C[C@@H](O)[C@H]1C(=O)N2C(C(=O)O)=C(SCCNC=N)C[C@H]12` [Imipenem], the remaining activity at 1.25 µM was determined as 102% in test [1] (Well no.=1935) and 104% in test [1] (Well no.=5494). Besides, the values for the remaining activity at 3.75 µM in test [2] (Well no.=1935) and in test [2] (Well no.=5494) were 103% and 104%, respectively.

For `CN(C)CCCN1c2ccccc2CCc2ccccc21` [Imipramine hydrochloride], the remaining activity at 1.25 µM in test [1] (Well no.=1061) worked out at 100%. Moreover, the remaining activity at 3.75 µM in test [2] (Well no.=1061) was found to be 97.7%.

Turning to `CC(C)Cn1cnc2c(N)nc3ccccc3c21` [Imiquimod], the remaining activity at 1.25 µM in test [1] (Well no.=2222) is 94%; in test [1] (Well no.=8069) it was 109%. Also, the remaining activity at 3.75 µM is 94.3% in test [2] (Well no.=2222) and 108% in test [2] (Well no.=8069).

As for `C[C@H]1CC[C@@H]2N(C1)C[C@H]1[C@@H]3C[C@H]4[C@@H](CC(=O)[C@H]5C[C@@H](O)CC[C@@]54C)[C@@H]3CC[C@H]1[C@]2(C)O` [Imperialine], the remaining activity at 1.25 µM in test [1] (Well no.=3155) came out at 93.8%. The remaining activity at 3.75 µM in test [2] (Well no.=3155) stood at 101%.

Turning to `CC(Nc1nc(N2CCCC2)nc2ccccc12)c1ccccc1` (stereo not shown) [Importazole], in test [1] (Well no.=5622), the remaining activity at 1.25 µM is 95.6%. In test [2] (Well no.=5622), the remaining activity at 3.75 µM is 96.8%.

Consider `CCC(Sc1nnc2c(n1)[nH]c1ccccc12)C(=O)N1c2ccccc2Sc2ccccc21` (stereo not shown) [Inauhzin], for which the remaining activity at 1.25 µM in test [1] (Well no.=6158) stood at 100%. Moreover, the remaining activity at 3.75 µM in test [2] (Well no.=6158) was determined as 91.7%.

For `CCc1cc2c(cc1CC)CC(NC[C@H](O)c1ccc(O)c3[nH]c(=O)ccc13)C2` [Indacaterol (maleate)], the remaining activity at 1.25 µM in test [1] (Well no.=8199) worked out at 105%. Further, the remaining activity at 3.75 µM in test [2] (Well no.=8199) is 95%.

For `CCc1cc2c(cc1CC)CC(NC[C@H](O)c1ccc(O)c3[nH]c(=O)ccc13)C2` [Indacaterol Maleate], in test [1] (Well no.=5323), the remaining activity at 1.25 µM was found to be 101%. Also, the remaining activity at 3.75 µM in test [2] (Well no.=5323) turned out to be 98.4%.

As for `CC1Cc2ccccc2N1NC(=O)c1ccc(Cl)c(S(N)(=O)=O)c1` (stereo not shown) [Indapamide], the remaining activity at 1.25 µM in test [1] (Well no.=2224) is 98.6%. In addition, in test [2] (Well no.=2224), the remaining activity at 3.75 µM was 103%.

Take `CN[C@@H]1C[C@@H](c2ccc(Cl)c(Cl)c2)c2ccccc21` [Indatraline hydrochloride]: the remaining activity at 1.25 µM in test [1] (Well no.=969) was determined as 106%. In addition, the remaining activity at 3.75 µM in test [2] (Well no.=969) is 106%.

`O=C(Nc1ccncc1)C(=O)c1cn(Cc2ccc(Cl)cc2)c2ccccc12` [Indibulin]: the remaining activity at 1.25 µM in test [1] (Well no.=6784) stood at 98.6%. In addition, in test [2] (Well no.=6784), the remaining activity at 3.75 µM is 98.9%.

Turning to `O=Nc1c(-c2c(O)[nH]c3ccccc23)[nH]c2ccccc12` [Indirubin-3'-oxime], in test [1] (Well no.=668), the remaining activity at 1.25 µM worked out at 95.2%. Moreover, the remaining activity at 3.75 µM in test [2] (Well no.=668) worked out at 92.9%.

In the case of `O=Nc1c(-c2c(O)[nH]c3ccccc23)[nH]c2ccccc12` [Indirubin-3?-monoxime], the remaining activity at 1.25 µM in test [1] (Well no.=2358) was found to be 99.7%. Moreover, the remaining activity at 3.75 µM in test [2] (Well no.=2358) was 106%.

Consider `O=C1Nc2ccccc2/C1=C1/Nc2ccccc2C1=O` [Indirubin], for which, in test [1] (Well no.=3771), the remaining activity at 1.25 µM amounted to 95.4%. In addition, the remaining activity at 3.75 µM in test [2] (Well no.=3771) amounted to 101%.

On to `NS(=O)(=O)c1ccc(S(=O)(=O)Nc2cccc3c(Cl)c[nH]c23)cc1` [Indisulam], for which the remaining activity at 1.25 µM in test [1] (Well no.=6068) is 94.4%. Further, the remaining activity at 3.75 µM in test [2] (Well no.=6068) is 95%.

For the compound `O=C(O)Cc1c[nH]c2ccccc12` [Indole-3-acetic acid], the remaining activity at 1.25 µM in test [1] (Well no.=3667) turned out to be 101%. In test [2] (Well no.=3667), the remaining activity at 3.75 µM stood at 104%.

As to `O=C(O)CCCc1c[nH]c2ccccc12` [Indole-3-butyric acid], the remaining activity at 1.25 µM in test [1] (Well no.=3210) came out at 91.8%. In addition, in test [2] (Well no.=3210), the remaining activity at 3.75 µM is 98.5%.

With `OCc1c[nH]c2ccccc12` [Indole-3-carbinol], the remaining activity at 1.25 µM in test [1] (Well no.=3524) was found to be 102%. Further, the remaining activity at 3.75 µM in test [2] (Well no.=3524) came out at 102%.

For `O=C(O)c1c[nH]c2ccccc12` [Indole-3-carboxylic acid], the remaining activity at 1.25 µM in test [1] (Well no.=6741) came out at 95.4%. Besides, in test [2] (Well no.=6741), the remaining activity at 3.75 µM stood at 97.8%.

In the case of `COc1ccc2c(c1)c(CC(=O)N1CCOCC1)c(C)n2C(=O)c1ccc(Cl)cc1` [Indomethacin morpholinylamide], the remaining activity at 1.25 µM in test [1] (Well no.=971) was found to be 94.6%. In addition, in test [2] (Well no.=971), the remaining activity at 3.75 µM was 89.7%.

`CC1=C[C@]23C(=O)[C@@H](C=C(COC(=O)c4ccccc4)[C@@H](O)[C@]2(O)[C@H]1OC(=O)c1ccccc1)[C@H]1[C@@H](C[C@H]3C)C1(C)C` [Ingenol 3,20-dibenzoate]: in test [1] (Well no.=3363), the remaining activity at 1.25 µM amounted to 95%. In test [2] (Well no.=3363), the remaining activity at 3.75 µM came out at 97.2%.

`CC1=C[C@]23C(=O)[C@@H](C=C(CO)[C@@H](O)[C@]2(O)[C@H]1O)[C@H]1[C@@H](C[C@H]3C)C1(C)C` [Ingenol]: in test [1] (Well no.=3308), the remaining activity at 1.25 µM was 98.5%. Besides, the remaining activity at 3.75 µM in test [2] (Well no.=3308) was found to be 99.1%.
